# In patent US5387516A, “Heat stable debranching enzyme from a Bacillus microorganism” (priority 1992, dated 1995):
# Read-outs that look alike come from different tables or passages of the source.
# Experiments:
# Type in all cases: biochemical
# [1] = tested on: DB-250 (Amano Pharmaceutical Co., Ltd.), Enzyme B, debranching enzyme from Bacillus sectorramus
# Experimental: (§1) To 0.5 ml of a 1% pullulan solution in a 100 mM McIlvaine's buffer solution (pH=5.0) was added 0.5 ml of an enzyme solution, and the system was allowed to react at 50° C. for 30 minutes. The reducing power thus produced was quantitatively determined through a 3,5-dinitrosalicylic acid reaction (the DNS method; cf. Borel et al., Helv. Chim. Acta., 35, 115 (1952)). The activity producing reducing power corresponding to 1 μmol of maltotriose for 1 minute was taken as one unit.
# [2] = tested on: Promozyme (Novo Nordisk A/S), Enzyme A, debranching enzyme from Bacillus acidopullulyticus
# Experimental: as §1
# [3] = tested on: debranching enzyme (α-1,6-glucosidase) of the invention from Bacillus sp. APC-9603
# Experimental: as §1
# [4] = Table 5, conditions not restated
# [5] = Table 5, inhibitor 1 mM, 50 mM acetic acid buffer pH 5.0, 40° C., 30 minutes
# [6] = inhibitor at final concentration 1 mM, 50 mM acetic acid buffer pH 5.0, 40° C., 30 minutes, no inhibitor = 100
Compound,"Influence of Inhibitor (residual activity), Enzyme B [1]","Influence of Inhibitor (residual activity), Enzyme A [2]","Influence of Inhibitor (residual activity), Enzyme of Invention ([3]; pH 5)",Inhibition (in words) ([3]; pH 5),Residual Activity ([3]; pH 5),"Influence of Inhibitor (residual activity), Enzyme B [1, 4]","Influence of Inhibitor (residual activity), Enzyme A [2, 4]","Influence of Inhibitor (residual activity), Enzyme of Invention [3, 5]","Residual Activity [3, 6]","Inhibition (in words), Enzyme B [1]","Inhibition (in words), Enzyme A [2]","Inhibition (in words) ([3]; inhibitor 1 mM, pH 5.0, 40° C., 30 minutes)"
O=C(O)CN(CCN(CC(=O)O)CC(=O)O)CC(=O)O [EDTA],93%,129%,90%,Slightly inhibited,90%,,,,,,,
"O=C(O)CI [MIA, monoiodoacetic acid]",67%,68%,105%,Non-inhibited,105%,,,,,,,
"CCN1C(=O)C=CC1=O [N-EMI, N-ethylmaleimide]",,,,Non-inhibited,,66%,69%,104%,104%,,,
"O=C(O)c1cc[c]([Hg][OH])cc1 [p-CMB, p-mercuri-benzoic acid]",,,,,,27%,14%,81%,81%,inhibited by p-CMB to a large extent,inhibited by p-CMB to a large extent,Slightly inhibited
